Laboratory results from patent publication US4508704A, “Radioactive metals complexed with phosphonate derivatives of bicycloheptane bis(alkylamines)” (The Dow Chemical Company, priority 1984, dated 1985).

Assays:
[1] = Biodistribution in several tissues in rats, NaI scintillation counter; type: in vivo; conditions: 2 hours, ~1 mCi, tail vein
Procedure: The Tc-complex of Example 1 (50 μl, ~1 mCi) was injected into the tail vein of a series of rats. The animals were killed after 2 hours and the radiation from several tissues was quantitated using a NaI scintillation counter.

[2] = Biodistribution in several tissues in rabbits, NaI scintillation counter; type: in vivo; conditions: 3 hours after injection, ear vein
Procedure: The complex of Example 1 was injected in the ear vein of a series of rabbits. The rabbits were killed 3 hours after injection. The radiation of several tissues was quantified by counting using a NaI scintillation counter.

[3] = cited from earlier work

Compound	Percent Dose/Organ, Blood [1] [Percent Dose/Organ]	Percent Dose/Organ, Skeleton [1] [Percent Dose/Organ]	Percent Dose/Organ, Urine [1] [Percent Dose/Organ]	Ratio Bone/blood [1]	Ratio Bone/muscle [1]	Ratio Femur/blood [2]	Ratio Femur/muscle [2]	radiation in Blood [2]	radiation in Femur [2]	radiation in Liver [2]	radiation in Muscle [2]	accumulation by bone ([3]; after intravenous administration)	biological half life ([3]; in vivo)
methylenediphosphonate [Tc-MDP]	0.27	39.4	50.9	146	150	44	114	0.13	5.7	0.11	0.05	–	–
[85Sr] [Sr-85, Strontium-85]	–	–	–	–	–	–	–	–	–	–	–	rapidly accumulated by bone	~ 800 days
